What all share (type): biochemical
The target in assay [1] is T1, BTK (Homo sapiens, UniProt Q06187).
T1 construct: purified from insect cells as a full-length construct containing a N-terminal 6×-His tag; His6 (N); made in house; host or cells: insect cells (baculovirus, Sf21)
Kind of assay: Btk in vitro inhibitory activity (TR-FRET, mobility shift or radiometric filter binding kinase assay). The note with it: determined using one of the methods outlined in Example 47a, 47b, and 47c. On the procedure:
(§1) Btk kinase activity is determined using a time-resolved fluorescence resonance energy transfer (TR-FRET) methodology. Measurements are performed in a reaction volume of 50 μL using 96-well assay plates. […] The reaction is quenched by the addition of 1.2 equivalents of EDTA (relative to divalent cation) in 25 μL of 1× Lance buffer (Perkin-Elmer). Streptavidin-APC (Perkin-Elmer) and Eu-labeled p-Tyr100 antibody (Perkin-Elmer) in 1× Lance buffer are added in a 25 μL volume to give final concentrations of 100 nM and 2.5 nM, respectively, and the mixture is allowed to incubate for one hour. The TR-FRET signal is measured on a multimode plate reader with an excitation wavelength (λEx) of 330 nm and detection wavelengths (λEm) of 615 and 665 nm. Activity is determined by the ratio of the fluorescence at 665 nm to that at 615 nm. For each compound, enzyme activity is measured at various concentrations of compound. Negative control reactions are performed in the absence of inhibitor in replicates of six, and two no-enzyme controls are used to determine baseline fluorescence levels. Inhibition constants, Ki(app), ware obtained using the program BatchKi (Kuzmic et al. (2000), Anal. Biochem. 286:45-50). IC50s are obtained according to the equation: IC50={Ki(app)/(1+[ATP]/Km^ATP)}+[E]total/2;
(§2) For all kinases, [ATP]=Km^ATP, [Btk]total=0.5 nM and [Lck]total=6 nM.
Kinase activity is measured in vitro using electrophoretic mobility shift assay. The kinase reactions are assembled in a total volume of 25 μL in 384 well plates. […] The reaction is incubated for one hour and is quenched by the addition of 45 μL of termination buffer (100 mM HEPES, pH7.5, 0.01% Triton X-100, 30 mM EDTA). The terminated reactions are analyzed using 12 channel LabChip® 3000 microfluidic detection instrument (Caliper Life Sciences). The enzymatic phosphorylation of the peptide results in a change in net charge, enabling electrophoretic separation of product from substrate peptide. As substrate and product peptides are separated, two peaks of fluorescence are observed. Change in the relative fluorescence intensity of the substrate and product peaks is the parameter measured, reflecting enzyme activity. In the presence of an inhibitor, the ratio between product and substrate is altered: the signal of the product decreases, while the signal of the substrate increases.
Activity in each sample is determined as the product to sum ratio (PSR): P/(S+P), where P is the peak height of the product peptide and S is the peak height of the substrate peptide. For each compound, enzyme activity is measured at various concentrations (12 concentrations of compound spaced by 3× dilution intervals). Negative control samples (0%-inhibition in the absence of inhibitor) and positive control samples (100%-inhibition, in the presence of 20 mM EDTA) are assembled in replicates of four and are used to calculate %-inhibition values for each inhibitor at each concentration. Percent inhibition (Pinh) is determined using following equation: Pinh=(PSR0%−PSRinh)/(PSR0%−PSR100%)*100,
where PSRmh is the product sum ratio in the presence of inhibitor, PSR0% is the average product sum ration in the absence of inhibitor and PSR100% is the average product sum ratio in 100%-inhibition control samples;
The IC50 values of inhibitors are determined by 4 parameter sigmoidal dose-response model fitting of the inhibition curves (Pinh versus inhibitor concentration) using XLfit 4 software.
Human Btk kinase (Genbank accession # NP_000052) was purified from insect cells as a full-length construct containing a N-terminal 6×-His tag. Btk kinase activity was determined using a radiometric filter binding assay. Measurements are performed in a low μL reaction volume 384-well assay plates. […]
Background: In TR-FRET formats the signal depends on donor and acceptor labels being close together.

Assay [2] addresses Lck (Homo sapiens, UniProt P06239). Kind of assay: Lck kinase inhibition (in vitro kinase assay). Here is the method: as §1, §2
For assay [3], the target named is T2, Jak3 (Homo sapiens, UniProt P52333).
T2 sequence (P52333 1-1124): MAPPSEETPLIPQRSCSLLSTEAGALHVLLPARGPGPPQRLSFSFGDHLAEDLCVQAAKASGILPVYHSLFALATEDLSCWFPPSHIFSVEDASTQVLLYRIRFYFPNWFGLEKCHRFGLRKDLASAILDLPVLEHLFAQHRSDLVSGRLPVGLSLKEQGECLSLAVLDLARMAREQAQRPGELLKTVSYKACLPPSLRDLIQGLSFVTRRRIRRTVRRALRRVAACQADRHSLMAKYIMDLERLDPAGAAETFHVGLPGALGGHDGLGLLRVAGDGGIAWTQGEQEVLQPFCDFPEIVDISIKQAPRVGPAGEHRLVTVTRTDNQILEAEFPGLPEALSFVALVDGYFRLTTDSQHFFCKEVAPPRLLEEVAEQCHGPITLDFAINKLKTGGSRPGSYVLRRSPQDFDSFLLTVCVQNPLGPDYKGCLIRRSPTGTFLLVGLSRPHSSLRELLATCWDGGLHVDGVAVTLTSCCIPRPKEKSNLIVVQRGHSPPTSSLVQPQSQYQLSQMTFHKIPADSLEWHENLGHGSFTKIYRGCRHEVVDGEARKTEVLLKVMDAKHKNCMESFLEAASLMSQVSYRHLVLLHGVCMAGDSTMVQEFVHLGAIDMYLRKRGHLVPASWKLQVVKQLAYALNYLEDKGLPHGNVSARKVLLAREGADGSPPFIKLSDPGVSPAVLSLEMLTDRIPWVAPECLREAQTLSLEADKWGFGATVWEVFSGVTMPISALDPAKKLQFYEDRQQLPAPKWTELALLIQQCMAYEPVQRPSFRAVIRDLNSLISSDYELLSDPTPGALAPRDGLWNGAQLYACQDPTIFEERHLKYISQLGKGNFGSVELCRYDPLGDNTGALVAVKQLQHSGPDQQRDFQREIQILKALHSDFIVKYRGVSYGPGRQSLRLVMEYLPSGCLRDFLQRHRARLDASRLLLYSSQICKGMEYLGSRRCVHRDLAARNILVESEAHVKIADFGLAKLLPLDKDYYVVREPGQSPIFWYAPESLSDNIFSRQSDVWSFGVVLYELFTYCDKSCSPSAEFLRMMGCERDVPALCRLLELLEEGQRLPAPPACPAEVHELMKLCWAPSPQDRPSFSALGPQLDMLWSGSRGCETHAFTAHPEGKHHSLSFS
Kind of assay: Jak3 kinase inhibition (in vitro kinase assay).

Assay [4] deals with EGFR (Homo sapiens, UniProt P00533). As to the kind of experiment: EGFR kinase inhibition (in vitro kinase assay).
Chain of EGFR (P00533 25-1210, species assumed): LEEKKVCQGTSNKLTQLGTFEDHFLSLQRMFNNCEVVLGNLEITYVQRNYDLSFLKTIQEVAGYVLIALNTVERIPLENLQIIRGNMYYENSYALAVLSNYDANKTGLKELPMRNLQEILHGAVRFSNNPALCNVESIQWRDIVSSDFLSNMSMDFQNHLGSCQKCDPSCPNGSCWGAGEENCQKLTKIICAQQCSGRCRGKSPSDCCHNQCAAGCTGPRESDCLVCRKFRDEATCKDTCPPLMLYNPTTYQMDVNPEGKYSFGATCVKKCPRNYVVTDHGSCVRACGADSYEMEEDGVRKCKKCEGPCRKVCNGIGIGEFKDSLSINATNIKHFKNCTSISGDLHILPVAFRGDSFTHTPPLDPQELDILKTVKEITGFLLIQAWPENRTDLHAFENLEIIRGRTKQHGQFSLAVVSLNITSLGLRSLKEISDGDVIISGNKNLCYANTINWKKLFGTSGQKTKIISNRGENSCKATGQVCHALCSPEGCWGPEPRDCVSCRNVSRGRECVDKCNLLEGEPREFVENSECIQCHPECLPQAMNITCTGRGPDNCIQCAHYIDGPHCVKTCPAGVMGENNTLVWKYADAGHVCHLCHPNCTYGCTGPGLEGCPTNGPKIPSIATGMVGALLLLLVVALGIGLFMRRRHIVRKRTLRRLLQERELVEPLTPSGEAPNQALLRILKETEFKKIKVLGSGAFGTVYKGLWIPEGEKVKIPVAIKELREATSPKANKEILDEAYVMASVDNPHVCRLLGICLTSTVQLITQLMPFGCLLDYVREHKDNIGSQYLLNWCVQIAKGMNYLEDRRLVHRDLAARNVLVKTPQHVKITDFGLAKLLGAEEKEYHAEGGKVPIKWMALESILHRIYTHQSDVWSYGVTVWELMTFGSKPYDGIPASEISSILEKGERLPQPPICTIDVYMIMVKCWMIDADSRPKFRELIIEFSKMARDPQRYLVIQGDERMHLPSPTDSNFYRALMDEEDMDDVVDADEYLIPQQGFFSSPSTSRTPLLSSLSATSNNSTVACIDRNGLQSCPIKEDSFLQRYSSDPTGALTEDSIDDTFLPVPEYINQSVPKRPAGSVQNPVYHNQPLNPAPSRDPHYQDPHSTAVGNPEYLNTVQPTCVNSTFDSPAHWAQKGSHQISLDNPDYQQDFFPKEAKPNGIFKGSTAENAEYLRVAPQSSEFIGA

The structures appear in SMILES notation.

What is called IC50 is the concentration needed to halve the response being measured.

T1 sequence (Q06187 whole entry): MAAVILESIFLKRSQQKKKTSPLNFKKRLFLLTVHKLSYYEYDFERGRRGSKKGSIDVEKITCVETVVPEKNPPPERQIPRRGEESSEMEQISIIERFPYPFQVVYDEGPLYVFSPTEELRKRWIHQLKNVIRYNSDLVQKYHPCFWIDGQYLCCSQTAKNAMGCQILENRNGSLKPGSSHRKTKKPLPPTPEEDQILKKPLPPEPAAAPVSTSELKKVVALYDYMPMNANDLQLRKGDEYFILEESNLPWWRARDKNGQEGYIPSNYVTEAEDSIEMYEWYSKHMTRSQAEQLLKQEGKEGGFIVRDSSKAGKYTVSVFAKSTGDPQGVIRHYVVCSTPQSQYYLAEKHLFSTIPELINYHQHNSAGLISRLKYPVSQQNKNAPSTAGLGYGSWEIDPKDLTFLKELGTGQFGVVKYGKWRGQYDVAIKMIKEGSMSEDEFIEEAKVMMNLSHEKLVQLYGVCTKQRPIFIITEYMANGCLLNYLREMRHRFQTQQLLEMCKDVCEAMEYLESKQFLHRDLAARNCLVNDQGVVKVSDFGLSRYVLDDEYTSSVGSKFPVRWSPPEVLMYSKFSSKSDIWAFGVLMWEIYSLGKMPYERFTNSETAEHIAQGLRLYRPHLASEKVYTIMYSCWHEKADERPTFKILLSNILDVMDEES
Chain of Lck (P06239 whole entry, species assumed): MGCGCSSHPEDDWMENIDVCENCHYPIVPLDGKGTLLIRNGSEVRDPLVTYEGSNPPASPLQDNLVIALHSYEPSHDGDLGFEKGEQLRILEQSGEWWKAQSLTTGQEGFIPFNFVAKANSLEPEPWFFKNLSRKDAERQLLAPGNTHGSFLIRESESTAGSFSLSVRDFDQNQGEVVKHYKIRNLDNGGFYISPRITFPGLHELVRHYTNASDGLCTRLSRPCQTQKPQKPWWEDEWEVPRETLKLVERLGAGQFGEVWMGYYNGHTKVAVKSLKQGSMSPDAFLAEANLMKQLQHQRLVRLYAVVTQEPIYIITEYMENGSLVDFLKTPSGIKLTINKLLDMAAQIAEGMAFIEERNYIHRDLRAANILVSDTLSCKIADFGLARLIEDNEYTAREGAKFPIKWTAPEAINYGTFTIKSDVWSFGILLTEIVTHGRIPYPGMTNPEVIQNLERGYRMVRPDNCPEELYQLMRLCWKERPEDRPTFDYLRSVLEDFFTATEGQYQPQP

Consider `C=CC(=O)N[C@H]1CC[C@H](n2nc(-c3ccc(C(=O)Nc4cc(C)ccn4)cc3)c3c(N)ncnc32)CC1` [Example 27, 4-(1-((1,4-trans)-4-acrylamidocyclohexyl)-4-amino-1H-pyrazolo[3,4-d]pyrimidin-3-yl)-N-(4-methylpyridin-2-yl)benzamide], for which the figures for the IC50 in assay [1], in assay [2] and in assay [3] were less than 0.001 µM, more than 10 µM and more than 10 µM, respectively.

Consider `CN(C/C=C/C(=O)N1CC[C@@H](n2nc(-c3ccc(C(=O)Nc4ncc(C5CC5)s4)cc3)c3c(N)ncnc32)C1)C1CC1` [Example 7, (R,E)-4-(4-amino-1-(1-(4-(cyclopropyl(methyl)amino)but-2-enoyl)pyrrolidin-3-yl)-1H-pyrazolo[3,4-d]pyrimidin-3-yl)-N-(5-cyclopropylthiazol-2-yl)benzamide], for which the IC50 in assay [1] is less than 0.1 µM; in assay [4], less than 0.001 µM; in assay [2], less than 0.001 µM; in assay [3], less than 0.001 µM.

`Cc1ccnc(NC(=O)c2ccc(-c3nn([C@@H]4CCN(C(=O)/C=C/CN(C)C)C4)c4ncnc(N)c34)cc2)c1` [Example 25, (R,E)-4-(4-amino-1-(1-(4-(dimethylamino)but-2-enoyl)pyrrolidin-3-yl)-1H-pyrazolo[3,4-d]pyrimidin-3-yl)-N-(4-methylpyridin-2-yl)benzamide]: the IC50 was less than 0.001 µM in assay [1], 1 to 10 µM in assay [4], more than 10 µM in assay [2] and more than 10 µM in assay [3].

As to `Nc1ncnc2c1c(-c1ccc(C(=O)Nc3cc(C(F)(F)F)ccn3)cc1)nn2[C@@H]1CCN(C(=O)/C=C/CNC2CC2)C1` [Example 24, (R,E)-4-(4-amino-1-(1-(4-(cyclopropylamino)but-2-enoyl)pyrrolidin-3-yl)-1H-pyrazolo[3,4-d]pyrimidin-3-yl)-N-(4-(trifluoromethyl)pyridin-2-yl)benzamide], the 50% inhibitory concentration (IC50) in assay [1] is less than 0.001 µM; in assay [4], less than 0.1 µM; in assay [2], less than 0.1 µM; in assay [3], more than 10 µM.

`CN(C/C=C/C(=O)N1CC[C@@H](n2nc(-c3ccc(C(=O)Nc4nccs4)cc3)c3c(N)ncnc32)C1)C1CC1` [Example 13, (R,E)-4-(4-amino-1-(1-(4-(cyclopropyl(methyl)amino)but-2-enoyl)pyrrolidin-3-yl)-1H-pyrazolo[3,4-d]pyrimidin-3-yl)-N-(thiazol-2-yl)benzamide]: the IC50 in assay [1] was less than 0.1 µM; in assay [4] it was less than 0.001 µM; in assay [2], less than 0.1 µM; in assay [3], less than 0.1 µM.

With `CCCc1ccnc(NC(=O)c2ccc(-c3nn([C@@H]4CCN(C(=O)/C=C/CN(C)C5CC5)C4)c4ncnc(N)c34)cc2)c1` [Example 3, (R,E)-4-(4-amino-1-(1-(4-(cyclopropyl(methyl)amino)but-2-enoyl)pyrrolidin-3-yl)-1H-pyrazolo[3,4-d]pyrimidin-3-yl)-N-(4-propylpyridin-2-yl)benzamide], the half-maximal inhibitory concentration (IC50) was less than 0.001 µM in assay [1], 0.1 to 1 µM in assay [4] and 0.1 to 1 µM in assay [2].

`CN(C/C=C/C(=O)N1CC[C@@H](n2nc(-c3ccc(C(=O)Nc4ncco4)cc3)c3c(N)ncnc32)C1)C1CC1` [Example 14, (R,E)-4-(4-amino-1-(1-(4-(cyclopropyl(methyl)amino)but-2-enoyl)pyrrolidin-3-yl)-1H-pyrazolo[3,4-d]pyrimidin-3-yl)-N-(oxazol-2-yl)benzamide]: the figures for the half-maximal inhibitory concentration (IC50) in assay [1], in assay [4] and in assay [2] were less than 0.1 µM, more than 10 µM and more than 10 µM, respectively.

With `CC(C)c1ccnc(NC(=O)c2ccc(-c3nn([C@@H]4CCN(C(=O)/C=C/CN(C)C5CC5)C4)c4ncnc(N)c34)cc2)c1` [Example 18, (R,E)-4-(4-amino-1-(1-(4-(cyclopropyl(methyl)amino)but-2-enoyl)pyrrolidin-3-yl)-1H-pyrazolo[3,4-d]pyrimidin-3-yl)-N-(4-isopropylpyridin-2-yl)benzamide], the 50% inhibitory concentration (IC50) was less than 0.001 µM in assay [1], 1 to 10 µM in assay [4] and 0.1 to 1 µM in assay [2].

Take `CN(C/C=C/C(=O)N1CC[C@@H](n2nc(-c3ccc(C(=O)Nc4ncc(C(F)(F)F)s4)cc3)c3c(N)ncnc32)C1)C1CC1` [Example 11, (R,E)-4-(4-amino-1-(1-(4-(cyclopropyl(methyl)amino)but-2-enoyl)pyrrolidin-3-yl)-1H-pyrazolo[3,4-d]pyrimidin-3-yl)-N-(5-(trifluoromethyl)thiazol-2-yl)benzamide]: the results for the 50% inhibitory concentration (IC50) in assay [1], in assay [4] and in assay [2] were less than 0.1 µM, 0.1 to 1 µM and less than 0.1 µM, respectively.

Take `CN(C/C=C/C(=O)N1CC[C@@H](n2nc(-c3ccc(C(=O)Nc4cc(C5CC5)ccn4)cc3)c3c(N)ncnc32)C1)C1CC1` [Example 17, (R,E)-4-(4-amino-1-(1-(4-(cyclopropyl(methyl)amino)but-2-enoyl)pyrrolidin-3-yl)-1H-pyrazolo[3,4-d]pyrimidin-3-yl)-N-(4-cyclopropylpyridin-2-yl)benzamide]: the figures for the IC50 in assay [1], in assay [4] and in assay [2] were less than 0.001 µM, 1 to 10 µM and 0.1 to 1 µM, respectively.

For `CCc1cnc(NC(=O)c2ccc(-c3nn([C@@H]4CCN(C(=O)/C=C/CN(C)C5CC5)C4)c4ncnc(N)c34)cc2)s1` [Example 9, (R,E)-4-(4-amino-1-(1-(4-(cyclopropyl(methyl)amino)but-2-enoyl)pyrrolidin-3-yl)-1H-pyrazolo[3,4-d]pyrimidin-3-yl)-N-(5-ethylthiazol-2-yl)benzamide], the figures for the half-maximal inhibitory concentration (IC50) in assay [1], in assay [4] and in assay [2] were less than 0.1 µM, 0.1 to 1 µM and less than 0.1 µM, respectively.

The values are drawn from patent US9624224B2, “Inhibitors of Bruton's tyrosine kinase” (Pharmacyclics LLC, priority 2013, dated 2017).
